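Exposure lasted 48 hours, with cells grown in 96-well plates and compounds tested at five concentrations. Here, GI50 denotes the concentration required for 50% inhibition of growth.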 Activity calls are given as the source filed them. No stated cut-off is given here; in the data, active = GI50 up to about 1.1 µM and inactive = higher.
Experiments:
Assay in all cases: NCI tumour cell line growth inhibition, 48 h
OVCAR-3 = system: OVCAR-3
MDA-MB-231 = system: MDA-MB-231
A549 = system: A549
MCF7 = system: MCF7
SR = system: SR
RXF 393 = system: RXF 393
SW-620 = system: SW-620
786-0 = system: 786-0
SNB-75 = system: SNB-75
UACC-257 = system: UACC-257
OVCAR-5 = system: OVCAR-5
HCT-116 = system: HCT-116
K562 = system: K562
CAKI-1 = system: CAKI-1
OVCAR-4 = system: OVCAR-4
SF-295 = system: SF-295
BT-549 = system: BT-549
SK-MEL-28 = system: SK-MEL-28
NCI-H23 = system: NCI-H23
LOX IMVI = system: LOX IMVI
PC-3 = system: PC-3
UO-31 = system: UO-31
HOP-62 = system: HOP-62
MDA-N = system: MDA-N
SK-OV-3 = system: SK-OV-3
NCI-H460 = system: NCI-H460
MDA-MB-435 = system: MDA-MB-435
IGROV-1 = system: IGROV-1
TK-10 = system: TK-10
KM12 = system: KM12
SN12C = system: SN12C
DU-145 = system: DU-145
EKVX = system: EKVX
NCI-H226 = system: NCI-H226
UACC-62 = system: UACC-62
CCRF-CEM = system: CCRF-CEM
HCC 2998 = system: HCC 2998
ACHN = system: ACHN
HT-29 = system: HT-29
HCT-15 = system: HCT-15
COLO 205 = system: COLO 205
SK-MEL-5 = system: SK-MEL-5
SK-MEL-2 = system: SK-MEL-2
U-251 = system: U-251
SF-268 = system: SF-268
T47D = system: T47D
NCI/ADR-RES = system: NCI/ADR-RES
SNB-19 = system: SNB-19
SF-539 = system: SF-539
HL-60 = system: HL-60
MOLT-4 = system: MOLT-4
NCI-H522 = system: NCI-H522
HOP-92 = system: HOP-92
OVCAR-8 = system: OVCAR-8
M14 = system: M14
A498 = system: A498
RPMI-8226 = system: RPMI-8226
Malme-3M = system: Malme-3M

COC(=O)C1(CCCCl)CCCN1C(=O)OC(C)(C)C (stereo unspecified)
GI50 (OVCAR-3): > 100 µM (inactive)
GI50 (MDA-MB-231): > 100 µM (inactive)
GI50 (A549): > 100 µM (inactive)
GI50 (MCF7): > 100 µM (inactive)
GI50 (SR): 10.5 µM (inactive)
GI50 (RXF 393): > 100 µM (inactive)
GI50 (SW-620): > 100 µM (inactive)
GI50 (786-0): > 100 µM (inactive)
GI50 (SNB-75): > 100 µM (inactive)
GI50 (UACC-257): > 100 µM (inactive)
GI50 (OVCAR-5): > 100 µM (inactive)
GI50 (HCT-116): > 100 µM (inactive)
GI50 (K562): 36.7 µM (inactive)
GI50 (CAKI-1): > 100 µM (inactive)
GI50 (OVCAR-4): > 100 µM (inactive)
GI50 (SF-295): > 100 µM (inactive)
GI50 (BT-549): > 100 µM (inactive)
GI50 (SK-MEL-28): > 100 µM (inactive)
GI50 (NCI-H23): > 100 µM (inactive)
GI50 (LOX IMVI): > 100 µM (inactive)
GI50 (PC-3): > 100 µM (inactive)
GI50 (UO-31): > 100 µM (inactive)
GI50 (HOP-62): > 100 µM (inactive)
GI50 (MDA-N): > 100 µM (inactive)
GI50 (SK-OV-3): > 100 µM (inactive)
GI50 (NCI-H460): > 100 µM (inactive)
GI50 (MDA-MB-435): > 100 µM (inactive)
GI50 (IGROV-1): > 100 µM (inactive)
GI50 (TK-10): > 100 µM (inactive)
GI50 (KM12): > 100 µM (inactive)
GI50 (SN12C): > 100 µM (inactive)
GI50 (DU-145): > 100 µM (inactive)
GI50 (EKVX): > 100 µM (inactive)
GI50 (NCI-H226): 75.5 µM (inactive)
GI50 (UACC-62): > 100 µM (inactive)
GI50 (CCRF-CEM): 37.5 µM (inactive)
GI50 (HCC 2998): > 100 µM (inactive)
GI50 (ACHN): > 100 µM (inactive)
GI50 (HT-29): > 100 µM (inactive)
GI50 (HCT-15): > 100 µM
GI50 (COLO 205): > 100 µM (inactive)
GI50 (SK-MEL-5): > 100 µM (inactive)
GI50 (SK-MEL-2): > 100 µM (inactive)
GI50 (U-251): > 100 µM (inactive)
GI50 (SF-268): > 100 µM (inactive)
GI50 (T47D): > 100 µM (inactive)
GI50 (NCI/ADR-RES): > 100 µM (inactive)
GI50 (SNB-19): > 100 µM (inactive)

C1CSCCSS[C@@H]2CCCCC2SC1 (stereo partly specified)
GI50 (OVCAR-3): > 100 µM (inactive)
GI50 (MDA-MB-231): > 100 µM (inactive)
GI50 (A549): > 100 µM (inactive)
GI50 (SF-539): > 100 µM (inactive)
GI50 (MCF7): > 100 µM (inactive)
GI50 (SR): > 100 µM (inactive)
GI50 (SW-620): > 100 µM (inactive)
GI50 (786-0): > 100 µM (inactive)
GI50 (SNB-75): > 100 µM (inactive)
GI50 (UACC-257): > 100 µM (inactive)
GI50 (OVCAR-5): > 100 µM (inactive)
GI50 (HL-60): 56.6 µM (inactive)
GI50 (MOLT-4): > 100 µM (inactive)
GI50 (HCT-116): 81.8 µM (inactive)
GI50 (K562): > 100 µM (inactive)
GI50 (NCI-H522): > 100 µM (inactive)
GI50 (OVCAR-4): > 100 µM (inactive)
GI50 (SF-295): > 100 µM (inactive)
GI50 (BT-549): > 100 µM (inactive)
GI50 (SK-MEL-28): > 100 µM (inactive)
GI50 (HOP-92): 29.2 µM (inactive)
GI50 (NCI-H23): > 100 µM (inactive)
GI50 (LOX IMVI): > 100 µM (inactive)
GI50 (PC-3): > 100 µM (inactive)
GI50 (UO-31): 78.9 µM (inactive)
GI50 (HOP-62): > 100 µM (inactive)
GI50 (MDA-N): > 100 µM (inactive)
GI50 (SK-OV-3): > 100 µM (inactive)
GI50 (NCI-H460): > 100 µM (inactive)
GI50 (MDA-MB-435): > 100 µM (inactive)
GI50 (IGROV-1): > 100 µM (inactive)
GI50 (TK-10): > 100 µM (inactive)
GI50 (OVCAR-8): > 100 µM (inactive)
GI50 (KM12): > 100 µM (inactive)
GI50 (SN12C): > 100 µM (inactive)
GI50 (DU-145): > 100 µM (inactive)
GI50 (EKVX): > 100 µM (inactive)
GI50 (UACC-62): > 100 µM (inactive)
GI50 (CCRF-CEM): > 100 µM (inactive)
GI50 (HCC 2998): > 100 µM (inactive)
GI50 (HT-29): > 100 µM (inactive)
GI50 (M14): > 100 µM (inactive)
GI50 (HCT-15): > 100 µM
GI50 (COLO 205): > 100 µM (inactive)
GI50 (SK-MEL-5): > 100 µM (inactive)
GI50 (U-251): > 100 µM (inactive)
GI50 (SF-268): > 100 µM (inactive)
GI50 (T47D): > 100 µM (inactive)
GI50 (NCI/ADR-RES): > 100 µM (inactive)
GI50 (SNB-19): > 100 µM (inactive)

C=CCOC(=O)CCCCCCCCCCCCCCCOC(=O)c1c(CCC[C@@H](C)O[Si](C)(C)C(C)(C)C)nc([O-])[n+]2c1CC[C@H]2CC1(CC/C=C\[C@H](CC)O[Si](C(C)C)(C(C)C)C(C)C)OCCO1
GI50 (OVCAR-3): 50.8 µM (inactive)
GI50 (MDA-MB-231): 18.6 µM (inactive)
GI50 (A549): 55 µM (inactive)
GI50 (SF-539): > 100 µM (inactive)
GI50 (MCF7): 53.5 µM (inactive)
GI50 (786-0): 26.7 µM (inactive)
GI50 (SNB-75): > 100 µM (inactive)
GI50 (UACC-257): > 100 µM (inactive)
GI50 (OVCAR-5): 30.1 µM (inactive)
GI50 (HCT-116): 47.1 µM (inactive)
GI50 (CAKI-1): > 100 µM (inactive)
GI50 (NCI-H522): > 100 µM (inactive)
GI50 (OVCAR-4): > 100 µM (inactive)
GI50 (SF-295): 48.8 µM (inactive)
GI50 (BT-549): > 100 µM (inactive)
GI50 (SK-MEL-28): > 100 µM (inactive)
GI50 (HOP-92): 18.2 µM (inactive)
GI50 (NCI-H23): > 100 µM (inactive)
GI50 (PC-3): > 100 µM (inactive)
GI50 (UO-31): 28.4 µM (inactive)
GI50 (HOP-62): 48.6 µM (inactive)
GI50 (MDA-N): 60.8 µM (inactive)
GI50 (SK-OV-3): > 100 µM (inactive)
GI50 (NCI-H460): > 100 µM (inactive)
GI50 (MDA-MB-435): > 100 µM (inactive)
GI50 (TK-10): > 100 µM (inactive)
GI50 (KM12): 85.9 µM (inactive)
GI50 (SN12C): 34 µM (inactive)
GI50 (A498): > 100 µM (inactive)
GI50 (DU-145): > 100 µM (inactive)
GI50 (EKVX): > 100 µM (inactive)
GI50 (RPMI-8226): 48.8 µM (inactive)
GI50 (NCI-H226): > 100 µM (inactive)
GI50 (UACC-62): 30.4 µM (inactive)
GI50 (CCRF-CEM): 14.4 µM (inactive)
GI50 (HCC 2998): 73.8 µM (inactive)
GI50 (ACHN): 35.7 µM (inactive)
GI50 (M14): > 100 µM (inactive)
GI50 (HCT-15): 46 µM
GI50 (COLO 205): > 100 µM (inactive)
GI50 (Malme-3M): > 100 µM (inactive)
GI50 (SK-MEL-5): 21.9 µM (inactive)
GI50 (SK-MEL-2): 37.2 µM (inactive)
GI50 (U-251): 17.2 µM (inactive)
GI50 (SF-268): > 100 µM (inactive)
GI50 (T47D): > 100 µM (inactive)
GI50 (NCI/ADR-RES): > 100 µM (inactive)
GI50 (SNB-19): 80.2 µM (inactive)

Source: ChEMBL document CHEMBL1201862, “PubChem BioAssay data set” (2004)
